Data taken from ChEMBL document CHEMBL1138106, “The discovery of a potent and selective lethal factor inhibitor for adjunct therapy of anthrax infection” (Bioorg Med Chem Lett, 2006).

Assays:
Lethal factor [1] = molecular target: T1, Lethal factor (Bacillus anthracis, UniProt P15917)
T1 sequence (P15917 whole entry): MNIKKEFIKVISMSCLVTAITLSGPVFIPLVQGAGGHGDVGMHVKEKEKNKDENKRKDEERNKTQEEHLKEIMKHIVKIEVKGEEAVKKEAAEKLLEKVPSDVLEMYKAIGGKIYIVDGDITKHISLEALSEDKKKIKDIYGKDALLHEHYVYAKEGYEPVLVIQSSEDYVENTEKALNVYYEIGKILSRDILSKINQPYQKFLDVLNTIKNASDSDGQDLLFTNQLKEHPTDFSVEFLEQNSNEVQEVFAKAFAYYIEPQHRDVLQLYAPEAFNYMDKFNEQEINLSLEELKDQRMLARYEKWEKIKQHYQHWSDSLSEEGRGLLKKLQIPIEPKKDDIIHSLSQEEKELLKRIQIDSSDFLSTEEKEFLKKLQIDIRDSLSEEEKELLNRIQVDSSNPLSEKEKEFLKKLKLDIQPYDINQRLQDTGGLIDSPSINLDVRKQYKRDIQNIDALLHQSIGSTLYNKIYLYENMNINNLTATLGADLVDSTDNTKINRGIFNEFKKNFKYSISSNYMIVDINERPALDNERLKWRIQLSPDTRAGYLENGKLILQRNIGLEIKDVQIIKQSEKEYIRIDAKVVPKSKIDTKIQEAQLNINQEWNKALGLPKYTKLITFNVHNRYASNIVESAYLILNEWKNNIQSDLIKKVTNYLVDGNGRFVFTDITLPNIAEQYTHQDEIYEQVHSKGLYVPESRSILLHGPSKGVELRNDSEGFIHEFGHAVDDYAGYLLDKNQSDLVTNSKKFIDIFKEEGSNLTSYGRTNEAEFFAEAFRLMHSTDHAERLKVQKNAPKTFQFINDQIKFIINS

Lethal factor [2] = molecular target: T1, Lethal factor; remark: listed apart in the source
Lethal factor [3] = molecular target: T1, Lethal factor; experiment: Inhibition of LF

SMILES	IC50 (Lethal factor [1]) [µM]	IC50 (Lethal factor [2]) [µM]	IC50 (Lethal factor [3])
Cc1cc(S(=O)(=O)N[C@@H](C(=O)NO)[C@H]2CCOC2)ccc1F	0.45	0.12	
Cc1cc(S(=O)(=O)N[C@@H](C(=O)NO)C(C)C)ccc1F	0.12		
COc1ccc(S(=O)(=O)N[C@@H](C(=O)NO)C(C)C)cc1	7.3	0.9	
CC(C)[C@@H](NS(=O)(=O)c1ccccc1)C(=O)NO	7.8	1.1	
Cc1cc(S(=O)(=O)N[C@@H](C(=O)NO)C(C)C)ccc1OCc1ccccc1	> 20	> 40	
Cc1cc(S(=O)(=O)N[C@@H](C(=O)NO)C2CCCCC2)ccc1F	0.19	0.042	
CC(C)[C@@H](NS(=O)(=O)c1ccc(F)cc1)C(=O)NO	3	0.29	
COc1ccc(S(=O)(=O)N(C)[C@@H](C(=O)NO)C(C)C)cc1	17		
COc1ccc(S(=O)(=O)N(Cc2ccncc2)[C@@H](C(=O)NO)C(C)C)cc1	9.5	3.1	
CC(C)[C@@H](NS(=O)(=O)c1ccc(F)c2ccccc12)C(=O)NO	2.76	0.46	
Cc1cc(S(=O)(=O)N[C@@H](C(=O)NO)[C@@H](C)C2CC2)ccc1F	0.46	0.065	
Cc1cc(S(=O)(=O)N[C@@H](C(=O)NO)C2CCCC2)ccc1F	0.17	0.064	
COc1ccc(S(=O)(=O)N(Cc2cccnc2)[C@@H](C(=O)NO)C(C)C)cc1.Cl [CGS-27023A]	12	1.2	Active
Cc1cc(S(=O)(=O)N[C@H](CCCN=C(N)N)C(=O)NO)ccc1F	1.7	0.04	
CC(C)[C@@H](NS(=O)(=O)CCc1ccccc1)C(=O)NO	> 20	11.9	
Cc1cc(S(=O)(=O)N[C@@H](C(=O)NO)C2CC2)ccc1F	0.73	0.12	
CC[C@H](C)[C@@H](NS(=O)(=O)c1ccc(F)c(C)c1)C(=O)NO	0.23	0.067	
Cc1cc(S(=O)(=O)N[C@H](CCOCCN)C(=O)NO)ccc1F	3.5	0.048	
COc1ccc(S(=O)(=O)N[C@@H]2CCN(O)C2=O)cc1	> 40	> 40	
Cc1ccc(S(=O)(=O)N[C@@H](C(=O)NO)C(C)C)cc1F	> 20	5.18	
CC(C)[C@@H](NS(=O)(=O)c1ccc(Cl)s1)C(=O)NO	6.45	1.31	
CC(C)[C@@H](NS(=O)(=O)c1ccc(Oc2ccccc2)cc1)C(=O)NO	> 20	> 40	
Cc1cc(S(=O)(=O)N[C@H](CCNC(=O)C(C)(C)N)C(=O)NO)ccc1F	8.7	0.057	
CC(C)[C@@H](NS(=O)(=O)c1ccc(-c2cnns2)s1)C(=O)NO	10.2	0.81	
CC(C)[C@@H](NS(=O)(=O)c1ccc(C(F)(F)F)cc1)C(=O)NO	> 20	> 40	

SMILES	IC50 (Lethal factor [1]) [µM]	IC50 (Lethal factor [2]) [µM]	IC50 (Lethal factor [3])
CC(C)[C@@H](NS(=O)(=O)c1ccc(-c2ccccc2)cc1)C(=O)NO	> 20	> 40	
CC(C)[C@@H](NS(=O)(=O)c1ccccc1F)C(=O)NO	> 20	6.6	
CC(=O)N(Cc1cccnc1)[C@@H](C(=O)NO)C(C)C	> 20	> 40	
Cc1cc(S(=O)(=O)NC(CCc2c[nH]cn2)C(=O)NO)ccc1F (racemic)	2.8	0.075	
CC(C)[C@@H](NS(=O)(=O)c1ccc(F)c(CO)c1)C(=O)NO	3.74	0.6	
COc1ccc(S(=O)(=O)N(CCc2ccsc2)[C@@H](C(=O)NO)C(C)C)cc1		2.1	
Cc1ccc(S(=O)(=O)N[C@@H](C(=O)NO)C(C)C)cc1	15	3	
Cc1cc(S(=O)(=O)N[C@H](CC2CC2)C(=O)NO)ccc1F	0.13	0.051	
CC[C@@H](C)[C@@H](NS(=O)(=O)c1ccc(F)c(C)c1)C(=O)NO	0.13	0.067	
COc1ccc(S(=O)(=O)N(CCn2ccnc2)[C@@H](C(=O)NO)C(C)C)cc1		19.1	
Cc1cc(S(=O)(=O)N[C@H](C)C(=O)NO)ccc1F	2.1	0.13	
CC[C@@H](NS(=O)(=O)c1ccc(F)c(C)c1)C(=O)NO	0.49	0.1	
Cc1cc(S(=O)(=O)N[C@H](CCNC(=O)CN)C(=O)NO)ccc1F	7.4	0.037	
CCCCOc1ccc(S(=O)(=O)N[C@@H](C(=O)NO)C(C)C)cc1	> 20	> 40	
CC(C)[C@@H](NS(=O)(=O)c1ccc(F)cc1CO)C(=O)NO	> 20	1.31	
Cc1cccc(S(=O)(=O)N[C@@H](C(=O)NO)C(C)C)c1	1.29	0.4	
CCCC[C@@H](NS(=O)(=O)c1ccc(F)c(C)c1)C(=O)NO	0.41	0.07	
Cc1cc(S(=O)(=O)N[C@@H](C(=O)NO)c2ccccc2)ccc1F	0.37	0.05	
CC(C)[C@@H](NS(=O)(=O)CC(F)(F)F)C(=O)NO	> 40	> 40	
Cc1cc(S(=O)(=O)N[C@@H](C(=O)NO)C2CCC2)ccc1F	0.67	0.13	
Cc1cc(S(=O)(=O)N[C@H](CCNC(=O)[C@H](C)N)C(=O)NO)ccc1F	7.47	0.059	
CC(C)[C@@H](NS(=O)(=O)Cc1cccc(Cl)c1)C(=O)NO	> 20	16.6	
CC(C)[C@@H](NS(=O)(=O)c1cccc(F)c1)C(=O)NO	12.4	2.8	
Cc1cc(S(=O)(=O)N[C@@H](C(=O)NO)C(C)(C)C)ccc1F	2.3	0.3	
Cc1cc(S(=O)(=O)N[C@@H](C(=O)NO)C(C)C)ccc1O	> 20	1.64	
